For the test, the system named is CPP32. The test can be described thus: Apaf-2 activity: recombining with phosphocellulose flow through fraction (Apaf-1) and 35S-labeled CPP32. In kind it is biochemical, human. As to conditions: phosphocellulose fraction alone, with or without 1 mM dATP. The procedure:
FIG. 3 illustrates fractionation and reconstitution of dATP-dependent activation of CPP32 by phosphocellulose chromatography. HeLa cell S-100 was subjected to phosphocellulose chromatography and the column flow through and bound material were collected as described in the Examples. Aliquots (10 μl) of HeLa S-100 (50 μg) (lanes 1 and 2), phosphocellulose flow through fraction (PC-FT) (lanes 3 and 4), phosphocellulose bound fraction (PC-B) (lanes 5 and 6), and the mixture of phosphocellulose flow through and bound material (lanes 7 and 8) were incubated with aliquots of 3 μl in vitro translated, ^35S-labeled CPP32 at 30° C. for 1 hr in the absence (lanes 1,3,5,7) or presence (lanes 2,4,6,8) of 1 mM dATP. The samples were subjected to SDS-PAGE, transferred to a nitrocellulose filter, and the filter was exposed to film for 16 hours at room temperature.
The Apaf-2 activity that bound to the phosphocellulose column was purified through the Mono S column as described in Example 7. […] In FIG. 4B, aliquots (30 μl) of the Mono-S fractions were subjected to 15% SDS-PAGE and the proteins were visualized by silver staining.
Aliquots of 0.2 μg of Apaf-2 purified through the Mono S column (lanes 1, 2), cytochrome c from bovine heart (lanes 3, 4), and rat liver (lanes 5, 6) were incubated with aliquots of 10 μl phosphocellulose flowthrough fraction and 3 μl in vitro translated, 35S-labeled CPP32 at 30° C. for 1 hr in a final volume of 20 μl buffer A in the absence (lanes 1,3,5) or presence of (lanes 2, 4, 6) 1 mM dATP. Samples were subjected to SDS-PAGE and transferred to a nitrocellulose filter which was then exposed to a film for 16 hr at room temperature.
To isolate the protein(s) required for the activation of CPP32, HeLa S-100 was loaded onto a phosphocellulose column, and the flow-through and bound fractions were collected. […] When the flowthrough and bound fractions were mixed, CPP32-activating activity was restored (lanes 7-8). […] The factor(s) that flow through the phosphocellulose column are designated apoptotic protease activating factor-1 (Apaf-1) and the factor that bound to the column is designated apoptotic protease activating factor-2 (Apaf-2). It is understood that “Apaf-1” may represent more than one protein or it may represent a combination of protein(s) and other factors.
Apaf-2 activity was assayed by recombining with Apaf-1 after purification by the following steps. First, the Apaf-2 fraction was subjected to 50% ammonium sulfate precipitation. All of the activity remained in the supernatant while most of the protein precipitated (Table I). The supernatant was loaded onto a phenyl-sepharose (hydrophobic interaction) column and the activity was eluted with 1 M ammonium sulfate. The eluate was passed through a gel filtration column; active fractions were subjected to sequential Mono Q (anion exchange) and Mono S (cation exchange) chromatography. The Apaf-2 activity flowed through the Mono Q column, and the flow through was directly loaded onto the Mono S column. Bound Apaf-2 activity was then eluted with a 100-300 mM NaCl linear salt gradient. The fractions from the Mono S column were collected and assayed. […] The active fractions were analyzed by SDS-PAGE (FIG. 4B). A protein of apparent molecular mass of 15 kDa was co-eluted with the activity. No other proteins were detected by silver staining in the active Apaf-2 fractions.
CPP32 was translated and purified as described above. […]

The results in this text go back to US6558900B2, “Regulation of apoptosis and in vitro model for studies thereof” (Emory University, priority 1996, dated 2003).

“Apaf-2: 15 kDa factor bound to phosphocellulose column, purified from HeLa S-100, identified as human cytochrome c”: the “dATP-dependent activation of CPP32 by fraction alone” value was “Neither fraction alone supported dATP-dependent activation of CPP32”.
